Data reported in the NIST ThermoML archive (doi:10.1016/j.jct.2017.08.004).

Test: molar heat capacity at constant pressure
Conditions: 101.33 kPa, Crystal

O[C@H]1[C@H](O)[C@@H](O)[C@H](O)[C@@H](O)[C@H]1O [cis-1,2,3,5-trans-4,6-cyclohexanehexol]
molar heat capacity at constant pressure [J/K/mol]
Conditions	Small sample (50 mg) DSC	relaxation calorimetry
1 K	–	0.00189
1.926 K	–	0.009609
2 K	–	0.0108
2.127 K	–	0.01292
2.354 K	–	0.01758
2.61 K	–	0.02281
2.904 K	–	0.03148
3 K	–	0.03479
3.219 K	–	0.04281
3.569 K	–	0.0586
3.959 K	–	0.08072
4 K	–	0.08367
4.391 K	–	0.1121
4.872 K	–	0.1562
5 K	–	0.1693
5.405 K	–	0.2182
5.998 K	–	0.3056
6 K	–	0.3048
6.654 K	–	0.4273
7 K	–	0.5031
7.388 K	–	0.5992
8 K	–	0.7731
8.198 K	–	0.8347
9 K	–	1.113
9.101 K	–	1.15
10 K	–	1.523
10.15 K	–	1.591
11.25 K	–	2.131
12.48 K	–	2.827
13.85 K	–	3.674
15 K	–	4.447
15.39 K	–	4.714
17.07 K	–	5.945
18.96 K	–	7.393
20 K	–	8.193
21.04 K	–	8.992
23.37 K	–	10.83
25 K	–	12.09
25.95 K	–	12.77
28.81 K	–	14.98
30 K	–	15.9
32 K	–	17.42
35 K	–	19.73
35.5 K	–	20.13
39.37 K	–	23.3
40 K	–	23.68
43.71 K	–	26.66
45 K	–	27.69
48.5 K	–	30.26
50 K	–	31.58
53.84 K	–	34.36
55 K	–	35.27
59.75 K	–	39.03
60 K	–	39.12
65 K	–	43.04
66.32 K	–	44.21
70 K	–	47.02
73.64 K	–	49.9
75 K	–	51.04
80 K	–	55.09
81.73 K	–	56.7
85 K	–	59.15
90 K	–	63.21
90.71 K	–	63.72
95 K	–	67.25
100 K	–	71.28
100.66 K	–	71.12
110 K	–	79.22
110.79 K	–	79.63
120 K	–	87.03
120.83 K	–	87.98
130 K	–	94.69
130.89 K	–	95.77
140 K	–	102.22
141.02 K	–	103.28
150 K	–	109.64
151.12 K	–	110.61
160 K	–	116.97
161.24 K	–	117.92
170 K	–	124.22
171.29 K	–	125.13
180 K	–	131.43
181.39 K	–	132.46
188.15 K	132.1	–
189.15 K	133.01	–
190 K	–	138.61
190.15 K	134.04	–
191.15 K	134.87	–
191.48 K	–	139.61
192.15 K	135.65	–
193.15 K	136.44	–
194.15 K	137.52	–
195.15 K	138.44	–
196.15 K	139.45	–
197.15 K	140.42	–
198.15 K	141.25	–
199.15 K	142.04	–
200 K	–	145.78
200.15 K	142.99	–
201.15 K	143.81	–
201.58 K	–	146.36
202.15 K	144.76	–
203.15 K	145.49	–
204.15 K	146.25	–
205.15 K	147.12	–
206.15 K	147.9	–
207.15 K	148.76	–
208.15 K	149.37	–
209.15 K	150.17	–
210 K	–	152.96
210.15 K	150.93	–
211.15 K	151.82	–
211.7 K	–	153.74
212.15 K	152.59	–
213.15 K	153.21	–
214.15 K	154.05	–
215.15 K	154.79	–
216.15 K	155.5	–
217.15 K	156.37	–
218.15 K	157.24	–
219.15 K	158	–
220 K	–	160.15
220.15 K	158.66	–
221.15 K	159.51	–
221.79 K	–	161.31
222.15 K	160.36	–
223.15 K	161.11	–
224.15 K	161.84	–
225.15 K	162.58	–
226.15 K	163.3	–
227.15 K	164.03	–
228.15 K	164.76	–
229.15 K	165.48	–
230 K	–	167.37
230.15 K	166.09	–
231.15 K	166.87	–
231.88 K	–	168.69
232.15 K	167.66	–
233.15 K	168.47	–
234.15 K	169.23	–
235.15 K	169.98	–
236.15 K	170.76	–
237.15 K	171.54	–
238.15 K	172.36	–
239.15 K	173.06	–
240 K	–	174.63
240.15 K	173.81	–
241.15 K	174.61	–
241.96 K	–	176.25
242.15 K	175.4	–
243.15 K	176.08	–
244.15 K	176.84	–
245.15 K	177.49	–
246.15 K	178.19	–
247.15 K	178.89	–
248.15 K	179.65	–
249.15 K	180.32	–
250 K	–	181.94
250.15 K	181.03	–
251.15 K	181.9	–
251.99 K	–	183.44
252.15 K	182.55	–
253.15 K	183.36	–
254.15 K	184.08	–
255.15 K	184.96	–
256.15 K	185.78	–
257.15 K	186.45	–
258.15 K	187.25	–
259.15 K	188.05	–
260 K	–	189.3
260.15 K	188.81	–
261.15 K	189.58	–
262.11 K	–	191.23
262.15 K	190.24	–
263.15 K	191.02	–
264.15 K	191.84	–
265.15 K	192.51	–
266.15 K	193.18	–
267.15 K	194.11	–
268.15 K	194.88	–
269.15 K	195.58	–
270 K	–	196.73
270.15 K	196.44	–
271.15 K	197.16	–
272.15 K	197.91	–
272.17 K	–	198.87
273.15 K	198.7	199.08
274.15 K	199.42	–
275.15 K	200.19	–
276.15 K	201.09	–
277.15 K	201.63	–
278.15 K	202.4	–
279.15 K	203.19	–
280 K	–	204.22
280.15 K	203.91	–
281.15 K	204.75	–
282.15 K	205.45	–
282.18 K	–	206.06
283.15 K	206.13	–
284.15 K	206.78	–
285.15 K	207.67	–
286.15 K	208.29	–
287.15 K	208.96	–
288.15 K	209.73	–
289.15 K	210.44	–
290 K	–	211.78
290.15 K	211.29	–
291.15 K	212.09	–
292.15 K	212.8	–
292.29 K	–	213.34
293.15 K	213.54	–
294.15 K	214.44	–
295.15 K	215.31	–
296.15 K	216.01	–
297.15 K	216.77	–
298.15 K	217.6	218
299.15 K	218.39	–
300 K	–	219.42
300.15 K	219.12	–
301.15 K	219.99	–
302.15 K	220.81	–
302.4 K	–	220.86
303.15 K	221.72	–
304.15 K	222.56	–
305 K	223.54	–
305.15 K	223.48	–
306.15 K	224.53	–
307.15 K	225.41	–
308.15 K	226.47	–
309.15 K	227.45	–
310 K	228.25	–
310.15 K	228.42	–
311.15 K	229.32	–
312.15 K	230.3	–
313.15 K	231.18	–
314.15 K	232.03	–
315 K	232.85	–
